Results on twelve compounds are retold here after ChEMBL document CHEMBL3734671, “Design and synthesis of an in vivo-efficacious PIM3 kinase inhibitor as a candidate anti-pancreatic cancer agent” (Bioorg Med Chem Lett, 2015).

The term pIC50 denotes −log10 of the IC50, conventionally taken in molar units. For orientation: inhibition means the drop in the measured response relative to a control, in per cent. A word on the solubility: it is how much of the substance goes into solution per volume.

The structures appear in SMILES notation. pIC50: −log10 of the molar value. ≈ marks a conversion by molar mass, not a printed value. Calls of active or inactive are those of the source. No cut-off for these calls is given here.

Series [1] is described as follows: Growth inhibition of human PANC1 cells after 72 hrs by CCK-8 assay. The class given is functional, cell-based. Particulars: PANC-1, 72 h. (Tetrazolium assays rely on reduction of a dye to a coloured formazan, in cell work by metabolically active cells.)
Series [2] deals with Serine/threonine-protein kinase pim-3 (Homo sapiens, UniProt Q86V86). The series can be described thus: Inhibition of PIM3 (unknown origin) using FL-Peptide 1 (5-FAM-AKRRRLSSLRA-COOH) substrate incubated for 2 hrs by electrophoretic mobility shift assay. For orientation: Mobility shift assays separate free from complexed probe on a gel.
Series [3] concerns the target CYP2C9 (Homo sapiens, UniProt P11712). The series can be described thus: Inhibition of CYP2C9 (unknown origin) at 10 uM. The class given is ADME.
Series [4] concerns the target Serine/threonine-protein kinase pim-2 (Homo sapiens, UniProt Q9P1W9). The series can be described thus: Inhibition of PIM2 (unknown origin) by electrophoretic mobility shift assay.
A short description of series [5]: Growth inhibition of human PCI66 cells after 72 hrs by CCK-8 assay. The class given is functional, cell-based. Particulars: PCI66, 72 h.
The nature of series [6]: Growth inhibition of human L3.6PL cells after 72 hrs by CCK-8 assay. The class given is functional.
Series [7] is described as follows: Growth inhibition of human MIAPaCa2 cells after 72 hrs by CCK-8 assay. The class given is functional, cell-based. As to conditions: MIA PaCa-2, 72 h.
Series [8] can be described thus: Growth inhibition of human PCI35 cells after 72 hrs by CCK-8 assay. The class given is functional, cell-based. As to conditions: PCI35, 72 h.
In series [9] the target is Receptor-type tyrosine-protein kinase FLT3 (Homo sapiens) (UniProt P36888). Briefly: Inhibition of FLT3 (unknown origin) at 200 nM by electrophoretic mobility shift assay.
Series [10] in a line: Aqueous solubility in PBS buffer solution at pH 7.4. The class given is physicochemical.
Series [11] is described as follows: Growth inhibition of human PCI66 cells at 10 uM after 72 hrs by CCK-8 assay. The class given is functional. Particulars: PCI66, 72 h, read-out: GI.
Series [12] in a line: Growth inhibition of human MIAPaCa2 cells at 10 uM after 72 hrs by CCK-8 assay. The class given is functional. Particulars: MIA PaCa-2, 72 h, read-out: GI.
Series [13] concerns the target CYP3A4 (Homo sapiens, UniProt P08684). Briefly: Inhibition of CYP3A4 (unknown origin) at 10 uM. The class given is ADME.
Series [14] deals with hERG (KCNH2) (Homo sapiens, UniProt Q12809). Briefly: Inhibition of human ERG at 10 uM by patch-clamp method. On the technique in general: The patch-clamp technique gives a direct electrical read-out from membranes.
Series [15] deals with CYP2D6 (Homo sapiens, UniProt P10635). The series can be described thus: Inhibition of CYP2D6 (unknown origin) at 10 uM. The class given is ADME.
The target in series [16] is CYP2C19 (Homo sapiens, UniProt P33261). Briefly: Inhibition of CYP2C19 (unknown origin) at 10 uM. The class given is ADME.
The target in series [17] is T1, CYP1A2 (Homo sapiens, UniProt P05177).
T1 sequence (P05177 whole entry): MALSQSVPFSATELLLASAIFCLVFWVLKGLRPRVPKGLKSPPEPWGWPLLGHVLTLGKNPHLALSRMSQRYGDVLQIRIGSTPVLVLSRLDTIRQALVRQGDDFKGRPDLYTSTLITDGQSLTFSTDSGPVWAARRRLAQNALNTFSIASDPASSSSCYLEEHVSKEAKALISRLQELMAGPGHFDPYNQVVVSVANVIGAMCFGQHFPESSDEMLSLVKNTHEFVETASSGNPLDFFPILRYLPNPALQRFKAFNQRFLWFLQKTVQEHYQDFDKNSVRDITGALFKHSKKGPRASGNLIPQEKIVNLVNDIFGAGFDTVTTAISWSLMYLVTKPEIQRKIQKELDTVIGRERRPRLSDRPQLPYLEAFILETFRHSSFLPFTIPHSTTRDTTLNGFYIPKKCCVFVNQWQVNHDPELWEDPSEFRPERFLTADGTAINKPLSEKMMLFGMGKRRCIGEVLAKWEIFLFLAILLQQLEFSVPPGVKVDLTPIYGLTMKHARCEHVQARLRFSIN
Briefly: Inhibition of CYP1A2 (unknown origin) at 10 uM. The class given is ADME.

Sequence of CYP2C9 (P11712 whole entry): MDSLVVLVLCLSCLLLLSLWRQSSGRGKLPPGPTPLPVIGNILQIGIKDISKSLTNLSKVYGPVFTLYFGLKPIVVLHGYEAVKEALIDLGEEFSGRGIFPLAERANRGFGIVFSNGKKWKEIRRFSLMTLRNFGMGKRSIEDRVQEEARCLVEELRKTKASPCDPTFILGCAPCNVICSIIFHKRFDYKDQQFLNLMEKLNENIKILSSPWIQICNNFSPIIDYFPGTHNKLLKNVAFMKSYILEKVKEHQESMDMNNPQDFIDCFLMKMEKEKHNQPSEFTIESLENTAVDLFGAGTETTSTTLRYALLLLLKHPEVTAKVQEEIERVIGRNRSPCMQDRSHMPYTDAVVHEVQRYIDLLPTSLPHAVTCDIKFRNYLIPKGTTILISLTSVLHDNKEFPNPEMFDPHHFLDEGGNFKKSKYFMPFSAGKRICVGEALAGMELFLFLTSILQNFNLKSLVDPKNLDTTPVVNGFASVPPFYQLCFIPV
Sequence of Receptor-type tyrosine-protein kinase FLT3 (Homo sapiens) (P36888 whole entry): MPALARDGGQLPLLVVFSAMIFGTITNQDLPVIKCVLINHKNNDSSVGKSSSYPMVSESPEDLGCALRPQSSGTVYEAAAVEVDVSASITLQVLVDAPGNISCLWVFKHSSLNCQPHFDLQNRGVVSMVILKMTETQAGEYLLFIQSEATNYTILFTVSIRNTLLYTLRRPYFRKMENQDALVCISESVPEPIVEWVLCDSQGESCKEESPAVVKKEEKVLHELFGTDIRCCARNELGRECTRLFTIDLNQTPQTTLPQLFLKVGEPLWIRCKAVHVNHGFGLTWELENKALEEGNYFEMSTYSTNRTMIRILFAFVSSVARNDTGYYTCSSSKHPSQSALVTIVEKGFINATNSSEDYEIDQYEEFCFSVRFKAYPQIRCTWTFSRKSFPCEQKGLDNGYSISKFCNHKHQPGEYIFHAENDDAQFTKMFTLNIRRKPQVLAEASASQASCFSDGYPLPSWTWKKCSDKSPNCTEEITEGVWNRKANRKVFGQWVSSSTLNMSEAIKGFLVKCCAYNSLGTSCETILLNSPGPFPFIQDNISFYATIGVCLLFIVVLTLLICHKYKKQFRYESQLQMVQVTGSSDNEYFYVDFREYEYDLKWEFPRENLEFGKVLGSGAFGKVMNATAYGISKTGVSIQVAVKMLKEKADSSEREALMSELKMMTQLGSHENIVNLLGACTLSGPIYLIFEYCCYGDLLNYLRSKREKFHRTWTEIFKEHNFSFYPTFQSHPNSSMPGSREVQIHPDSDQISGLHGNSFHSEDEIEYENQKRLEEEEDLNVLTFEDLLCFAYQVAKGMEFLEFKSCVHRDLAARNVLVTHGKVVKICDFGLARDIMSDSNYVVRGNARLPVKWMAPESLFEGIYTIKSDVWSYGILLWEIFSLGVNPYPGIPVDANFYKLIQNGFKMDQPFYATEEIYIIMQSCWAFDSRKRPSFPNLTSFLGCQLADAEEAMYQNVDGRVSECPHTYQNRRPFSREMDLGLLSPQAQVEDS
Sequence of CYP2D6 (P10635 whole entry): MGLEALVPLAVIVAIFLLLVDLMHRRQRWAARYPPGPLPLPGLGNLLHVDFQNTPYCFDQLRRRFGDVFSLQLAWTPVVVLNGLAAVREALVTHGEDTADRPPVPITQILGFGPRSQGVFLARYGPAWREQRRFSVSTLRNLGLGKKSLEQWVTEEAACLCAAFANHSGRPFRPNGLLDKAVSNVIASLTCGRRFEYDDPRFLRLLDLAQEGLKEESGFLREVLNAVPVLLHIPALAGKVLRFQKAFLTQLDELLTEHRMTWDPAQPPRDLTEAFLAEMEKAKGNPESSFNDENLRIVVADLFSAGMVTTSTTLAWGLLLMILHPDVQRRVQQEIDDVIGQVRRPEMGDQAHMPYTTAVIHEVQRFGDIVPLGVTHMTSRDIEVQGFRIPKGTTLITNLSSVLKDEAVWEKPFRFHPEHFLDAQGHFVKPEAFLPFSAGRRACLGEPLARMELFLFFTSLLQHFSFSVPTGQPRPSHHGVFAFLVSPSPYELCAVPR
Sequence of Serine/threonine-protein kinase pim-2 (Q9P1W9 whole entry): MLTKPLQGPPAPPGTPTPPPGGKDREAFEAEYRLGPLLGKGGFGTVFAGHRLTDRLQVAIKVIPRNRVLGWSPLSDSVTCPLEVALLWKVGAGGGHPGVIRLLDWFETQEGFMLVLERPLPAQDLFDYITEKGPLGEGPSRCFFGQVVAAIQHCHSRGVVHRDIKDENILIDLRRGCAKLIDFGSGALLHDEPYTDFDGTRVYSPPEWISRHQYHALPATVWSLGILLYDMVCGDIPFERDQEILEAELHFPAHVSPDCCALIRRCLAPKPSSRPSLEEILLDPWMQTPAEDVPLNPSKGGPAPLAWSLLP
Sequence of CYP2C19 (P33261 whole entry): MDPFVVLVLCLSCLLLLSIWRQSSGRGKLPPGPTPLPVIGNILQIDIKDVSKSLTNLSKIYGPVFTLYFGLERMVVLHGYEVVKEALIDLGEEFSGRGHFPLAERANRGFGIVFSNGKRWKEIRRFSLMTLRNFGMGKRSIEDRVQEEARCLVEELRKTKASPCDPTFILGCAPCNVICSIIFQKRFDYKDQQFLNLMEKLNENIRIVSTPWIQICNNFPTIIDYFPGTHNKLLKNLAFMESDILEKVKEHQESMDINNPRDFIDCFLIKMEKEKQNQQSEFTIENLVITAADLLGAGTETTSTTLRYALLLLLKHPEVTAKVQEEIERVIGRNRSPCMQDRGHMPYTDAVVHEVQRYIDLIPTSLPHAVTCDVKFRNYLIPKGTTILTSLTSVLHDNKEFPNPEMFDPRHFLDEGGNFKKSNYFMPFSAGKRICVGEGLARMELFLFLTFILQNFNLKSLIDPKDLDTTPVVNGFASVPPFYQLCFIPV
Sequence of CYP3A4 (P08684 whole entry): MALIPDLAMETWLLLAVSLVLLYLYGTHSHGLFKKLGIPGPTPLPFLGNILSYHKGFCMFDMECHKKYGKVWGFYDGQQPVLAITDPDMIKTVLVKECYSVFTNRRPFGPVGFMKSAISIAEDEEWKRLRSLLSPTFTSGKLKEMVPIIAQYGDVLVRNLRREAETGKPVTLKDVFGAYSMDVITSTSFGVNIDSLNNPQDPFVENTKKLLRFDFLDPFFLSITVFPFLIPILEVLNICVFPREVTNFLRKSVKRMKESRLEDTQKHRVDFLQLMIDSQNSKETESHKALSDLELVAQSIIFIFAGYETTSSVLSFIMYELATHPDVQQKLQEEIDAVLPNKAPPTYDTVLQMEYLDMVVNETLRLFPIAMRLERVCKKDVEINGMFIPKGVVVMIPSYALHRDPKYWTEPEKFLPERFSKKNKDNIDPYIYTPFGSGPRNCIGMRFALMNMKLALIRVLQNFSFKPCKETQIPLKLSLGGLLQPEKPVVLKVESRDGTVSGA
Sequence of hERG (KCNH2) (Q12809 whole entry): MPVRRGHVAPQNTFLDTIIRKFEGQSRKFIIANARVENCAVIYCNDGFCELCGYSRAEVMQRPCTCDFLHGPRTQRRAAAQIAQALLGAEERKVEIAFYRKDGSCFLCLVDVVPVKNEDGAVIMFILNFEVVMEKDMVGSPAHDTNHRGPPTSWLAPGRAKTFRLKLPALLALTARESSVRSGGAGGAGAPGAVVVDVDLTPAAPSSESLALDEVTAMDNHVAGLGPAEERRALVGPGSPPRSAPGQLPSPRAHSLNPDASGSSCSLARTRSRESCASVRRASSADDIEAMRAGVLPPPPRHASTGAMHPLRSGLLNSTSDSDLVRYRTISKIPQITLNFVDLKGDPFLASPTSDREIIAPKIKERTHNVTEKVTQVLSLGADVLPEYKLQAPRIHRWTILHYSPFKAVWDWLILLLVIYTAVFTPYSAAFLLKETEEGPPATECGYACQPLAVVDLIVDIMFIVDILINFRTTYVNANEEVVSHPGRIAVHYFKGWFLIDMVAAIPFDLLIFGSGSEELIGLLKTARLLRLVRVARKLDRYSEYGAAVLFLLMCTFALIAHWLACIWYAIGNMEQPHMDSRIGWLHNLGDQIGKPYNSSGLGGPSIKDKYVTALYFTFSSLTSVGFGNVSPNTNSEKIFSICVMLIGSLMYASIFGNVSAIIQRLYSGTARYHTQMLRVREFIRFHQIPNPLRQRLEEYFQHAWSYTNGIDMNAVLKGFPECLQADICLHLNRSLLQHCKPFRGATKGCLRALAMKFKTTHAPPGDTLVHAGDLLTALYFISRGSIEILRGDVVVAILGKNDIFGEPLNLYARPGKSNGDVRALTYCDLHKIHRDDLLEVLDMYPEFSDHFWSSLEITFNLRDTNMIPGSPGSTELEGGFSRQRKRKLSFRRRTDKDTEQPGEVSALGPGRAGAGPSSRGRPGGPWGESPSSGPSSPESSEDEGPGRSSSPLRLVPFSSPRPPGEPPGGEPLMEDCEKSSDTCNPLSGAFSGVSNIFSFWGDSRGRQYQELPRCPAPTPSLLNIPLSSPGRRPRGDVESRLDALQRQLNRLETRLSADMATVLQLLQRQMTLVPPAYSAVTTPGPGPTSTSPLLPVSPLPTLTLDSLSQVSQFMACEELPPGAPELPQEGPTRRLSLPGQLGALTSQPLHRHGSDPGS

In the case of `COc1ccc2c(c1CN1CCNCC1)O/C(=C\c1c[nH]c3ncccc13)C2=O`, the values for the pIC50 in series [1] and in series [2] were 5.28 and 8.89, respectively.

`COc1ccc2c(c1CN1CCNC[C@H]1C)O/C(=C\c1n[nH]c3ncccc13)C2=O`: the negative logarithm of the IC50 (pIC50) in series [1] is < 5.00; in series [2], 7.74.

As to `COc1ccc2c(c1CN1CCNCC1)O/C(=C\c1n[nH]c3ccccc13)C2=O`, the inhibition at 10 µM in [3] is < 1%. The pIC50 was < 6.00 in series [4]; < 5.00 in series [5]; < 5.00 in series [6]; < 5.00 in series [1]; < 5.00 in [7]; < 5.00 in [8]. Also, the pIC50 in [2] is 7.60. Besides, the inhibition result in series [9] was “Active”. In series [10], this compound displayed a solubility of 187 µM (≈ 73 µg/mL).

For `COc1ccc2c(c1CN1CCN[C@H](C)C1)O/C(=C\c1n[nH]c3ncccc13)C2=O`, the pIC50 in series [1] is 5.08; in [2], 8.40.

For the compound `COc1ccc2c(c1CN1CCNCC1)O/C(=C\c1c[nH]c3cccnc13)C2=O`, the pIC50 in series [1] was < 5.00; in series [2] it was < 5.70.

As to `COc1ccc2c(c1CN1CCNCC1)O/C(=C\c1c[nH]c3cnccc13)C2=O`, the pIC50 in [1] is < 5.00; in [2], 7.36.

In the case of `CC(c1c(OCCO)ccc2c1O/C(=C\c1n[nH]c3ncccc13)C2=O)N1CCNCC1` (centres undefined), the pIC50 in series [1] is < 5.00; in series [2], 8.19.

`C#Cc1cccc(Nc2ncnc3cc(OCCOC)c(OCCOC)cc23)c1` [ERLOTINIB]: the figures for the inhibition of growth at 10 µM in series [11] and in [12] were 12% and < 1%, respectively. For the same compound, the negative-log IC50 (pIC50) was < 5.00 in series [5]; 5.40 in series [6]; 5.51 in series [1]; < 5.00 in series [7]; 5.11 in series [8].

Take `COCCOc1ccc2c(c1C(C)N1CCNCC1)O/C(=C\c1n[nH]c3ncccc13)C2=O` (centres undefined): the inhibition at 10 µM was < 1% in series [3]; < 1% in series [13]; 16% in series [14]; 83% in series [15]; < 1% in series [16]; < 1% in series [17]. The negative logarithm of the IC50 (pIC50) was 5.48 in series [1] and 8.52 in [2]. In addition, the concentration in solution in [10] (solubility) was 196 µM (≈ 88.1 µg/mL).

Consider `COc1ccc2c(c1CN1CCN[C@@H](C)C1)O/C(=C\c1n[nH]c3ncccc13)C2=O`, for which the figures for the pIC50 in [1] and in series [2] were 5.16 and 9.10, respectively.

For `COc1ccc2c(c1CN1CCNC[C@@H]1C)O/C(=C\c1n[nH]c3ncccc13)C2=O`, the pIC50 in series [1] was < 5.00; in series [2] it was 8.96.

In the case of `COc1ccc2c(c1CN1CCNCC1)O/C(=C\c1c[nH]c3ccncc13)C2=O`, the pIC50 was < 5.00 in series [1] and 6.89 in [2].
